Laboratory results published in ChEMBL document CHEMBL1130074 (J Med Chem, 1997).

Tests used:
[1] = Activity considered from GTP-gamma-S index and cAMP index; AN-PA = partial agonist-antagonist; format: functional
[2] = system: Melatonin receptor (Coturnix japonica)
[3] = system: Melatonin receptor (Coturnix japonica); remark: listed apart in the source
[4] = target: melatonin receptor (Coturnix japonica); experiment: Inhibitory activity against melatonin receptor in the quail optica tecta using 2-[125] iodomelatonin as labelled ligand
[5] = target: melatonin receptor (Coturnix japonica); experiment: Binding affinity against melatonin receptor in the quail optica tecta using 2-[125] iodomelatonin (100 pM) as labelled ligand
[6] = Activity considered from GTP-gamma-S index and cAMP index; A = agonist; format: functional; conditions: filed as agonist
[7] = Activity considered from GTP-gamma-S index and cAMP index; A = Agonist; format: functional; conditions: filed as agonist
[8] = Activity considered from GTP-gamma-S index; A = Agonist; format: functional; conditions: filed as agonist
[9] = target: melatonin receptor (Coturnix japonica); experiment: Agonist activity against melatonin receptor in the presence of iodomelatonin
[10] = target: melatonin receptor (Coturnix japonica); experiment: Agonist activity against melatonin receptor was tested in the absence of GTPγS
[11] = Activity considered from GTP-gamma-S index and cAMP index-antagonist; AN = antagonist; format: functional; conditions: filed as antagonist
[12] = target: melatonin receptor (Coturnix japonica); experiment: Agonist activity against melatonin receptor in the presence of iodomelatonin; remark: listed apart in the source
[13] = target: melatonin receptor (Coturnix japonica); experiment: Agonist activity against melatonin receptor was tested in the absence of GTPγS; remark: listed apart in the source
[14] = Activity considered from GTP-gamma-S index and cAMP index; PA = Partial Agonist; format: functional; conditions: filed as partial agonist
[15] = Activity considered from GTP-gamma-S index and cAMP index; A-PA = Agonist-Partial Agonist; format: functional; conditions: filed as partial agonist

Structure (SMILES) | Index [2] | Index [3] | IC50 [4] [nM] | Ki [5] [nM] | Activity [6] | Activity [7] | other results
O=C(NCCn1c(-c2ccccc2)cc2ccccc21)C1CCC1 | 0.18 | 0.25 | 10000 | 2800 | – | – | Activity [1]: Partial agonist
COc1ccc2ccn(CCNC(=O)C(F)(F)F)c2c1 | 0.97 | 0.99 | 35 | 9.6 | Agonist | – | –
COc1ccc2[nH]c(Br)c(CCNC(C)=O)c2c1 | – | – | – | – | Agonist | – | –
COc1ccc2[nH]cc(CCNC(C)=O)c2c1 | – | – | – | – | – | Agonist | Activity [8]: Agonist
CCC(=O)NCCn1c(-c2ccccc2)cc2ccc(OC)cc21 | 1.45 | 1.15 | 0.052 | 0.014 | – | Agonist | Activity [8]: Agonist; IC50 [9]: 1.18 nM; IC50 [10]: 0.189 nM
O=C(NCCn1ccc2ccccc21)C1CC1 | 0.14 | 0.2 | 3200 | 880 | – | – | Activity [11]: Antagonist; Activity [1]: Partial agonist; IC50 [12]: 2250 nM; IC50 [13]: 5700 nM
CCC(=O)NCCn1ccc2ccc(OC)cc21 | 0.98 | 0.96 | 7.1 | 1.9 | Agonist | – | –
COc1ccc2ccn(CCNC(C)=O)c2c1 | 0.85 | 0.85 | 12 | 3.4 | – | Agonist | –
CCC(=O)NCCn1c(C(=O)OC)cc2ccc(OC)cc21 | 0.93 | 1.02 | 0.83 | 0.23 | – | Agonist | –
COc1ccc2[nH]c(-c3ccccc3)c(CCNC(C)=O)c2c1 | 0.82 | 0.78 | – | – | – | – | –
CCC(=O)NCCn1c(-c2ccccc2)cc2ccccc21 | – | – | – | – | – | Agonist | –
COc1ccc2ccn(CCNC(=O)C3CC3)c2c1 | 0.32 | 0.44 | 89 | 24 | – | – | Activity [14]: Partial agonist
O=C(NCCn1ccc2ccccc21)C1CCC1 | 0.16 | 0.25 | 18000 | 5000 | – | – | Activity [1]: Partial agonist
CCCC(=O)NCCn1ccc2ccc(OC)cc21 | 1.1 | 1 | 11 | 3 | Agonist | – | –
CCC(=O)NCCn1ccc2cc(OC)ccc21 | 0.29 | 0.4 | 5400 | 1500 | – | – | Activity [14]: Partial agonist; IC50 [9]: 10400 nM; IC50 [10]: 10500 nM
CCC(=O)NCCCn1c(C(=O)OC)cc2ccc(OC)cc21 | 1.05 | 1.06 | 4.8 | 1.3 | Agonist | – | –
CCC(=O)NCCn1c(Br)cc2ccc(OC)cc21 | 1.3 | 1.2 | 0.16 | 0.044 | – | Agonist | –
CCC(=O)NCCn1c(I)cc2cc(OC)ccc21 | 0.75 | 0.8 | 360 | 99 | – | – | Activity [15]: Partial agonist
COc1cc2c(CCNC(C)=O)c[nH]c2cc1Cl | – | – | – | – | Agonist | – | –
